Experimental findings from US6162810A, “Inadone and tetralone compounds for inhibiting cell proliferation” (The Regents of the University of California, priority 1998, dated 2000) are described below.

For one data set, the system named is proliferating cells. Nature of the data set: Ability of further compounds to kill proliferating cells (average). The format is cell-based. Conditions: average TC50, proliferating cells; read-out: TC50 (the source's name). As to the method:
(§1) (B) Similarly, compounds of the invention were tested for their ability to kill CEM WT, CEM AB9228, MOLT-4, Jurkat, NALL-1, WI-L2, K562, and HL-60 cells.
(C) Proceeding as described above, further compounds were tested for their ability to kill proliferating cells.
Turning to `O=C1C(=Cc2cc(Cl)cc(Cl)c2)Cc2ccccc21` [2-(3',5'-dichlorophenylmethylene)-1-indanone], the CC50 is 30 µM.
Consider `COc1cc2c(cc1OC)C(=O)C(=Cc1cc(C)ccc1C)C2` [5,6-dimethoxy-2-(2',5'-dimethylphenylmethylene)-1-indanone], for which the CC50 stood at 30.5 µM.
On the same count and under the same terms, the figure for `COc1cc2c(cc1OC)C(=O)C(=Cc1cc(I)cc(I)c1O)C2` [5,6-dimethoxy-2-(2'-hydroxy-3',5'-diiodophenylmethylene)-1-indanone] is 12.5 µM; for `COc1cc2c(cc1OC)C(=O)C(=Cc1cc([N+](=O)[O-])ccc1O)C2` [5,6-dimethoxy-2-(2'-hydroxy-5'-nitrophenylmethylene)-1-indanone] it is 14.5 µM; for `COc1cc2c(cc1OC)C(=O)C(=Cc1cc(F)cc(F)c1)C2` [5,6-dimethoxy-2-(3',5'-difluorophenylmethylene)-1-indanone] it is 19 µM.
The same measure, in the same setting: the result for `COc1cc2c(cc1OC)C(=O)C(=Cc1cc(OC)c(O)c(OC)c1)C2` [5,6-dimethoxy-2-(3',5'-dimethoxy-4'-hydroxyphenylmethylene)-1-indanone] reads above 50 µM.
Still for that read-out and setting: the result for `COc1cc2c(cc1OC)C(=O)C(=Cc1cc(C)c(OC(C)=O)c(C)c1)C2` [5,6-dimethoxy-2-(3',5'-dimethyl-4'-acetoxyphenylmethylene)-1-indanone] reads 0.4 µM; that for `COc1cc2c(cc1OC)C(=O)C(=Cc1cc(C)c([N+](=O)[O-])c(C)c1)C2` [5,6-dimethoxy-2-(3',5'-dimethyl-4'-nitrophenylmethylene)-1-indanone], above 50 µM.
`COc1cc2c(cc1OC)C(=O)C(=Cc1cc(C)c(OC(=O)CP(=O)(O)O)c(C)c1)C2` [5,6-dimethoxy-2-(3',5'-dimethyl-4'-phosphonoacetoxyphenylmethylene)-1-indanone]: the CC50 is 11.5 µM.
Take `COc1cc2c(cc1OC)C(=O)C(=Cc1cc(C)c(OC(=O)CCC(=O)O)c(C)c1)C2` [5,6-dimethoxy-2-(3',5'-dimethyl-4'-succinophenylmethylene)-1-indanone]: the CC50 is 0.07 µM.
Still for that read-out and setting: the figure for `COc1cc2c(cc1OC)C(=O)C(=Cc1cc(C(F)(F)F)cc(C(F)(F)F)c1)C2` [5,6-dimethoxy-2-(3',5'-ditrifluoromethylphenylmethylene)-1-indanone] is above 50 µM; for `COc1cc2c(cc1OC)C(=O)C(=Cc1cccc(Cl)c1)C2` [5,6-dimethoxy-2-(3'-chlorophenylmethylene)-1-indanone] it is 2.5 µM.
Still for that read-out and setting: the result for `COc1cc2c(c(NC(=O)C=O)c1OC)C(=O)C(=Cc1cc(C)c(O)c(C)c1)C2` [5,6-dimethoxy-7-(NHCOCOH)-2-(3',5'-dimethyl-4'-hydroxyphenylmethylene)-1-indanone] reads 0.0015 µM.
On the same count and under the same terms, the result for `COC(=O)C(=O)Nc1c(OC)c(OC)cc2c1C(=O)C(=Cc1cc(C)c(O)c(C)c1)C2` [5,6-dimethoxy-7-methoxalylamino-2-(3',5'-dimethyl-4'-hydroxyphenylmethylene)-1-indanone] reads 0.2 µM; that for `COc1cc(C=C2Cc3cc(C)c(C)cc3C2=O)cc(OC)c1` [5,6-dimethyl-2-(3',5'-dimethoxyphenylmethylene)-1-indanone], above 50 µM.
Consider `COc1cc(C=C2Cc3cc(OC)ccc3C2=O)cc(OC)c1` [5-methoxy-2-(3',5'-dimethoxyphenylmethylene)-1-indanone], for which the CC50 is above 50 µM.
The same measure, in the same setting: the result for `COc1ccc(C=C2CCc3cc(OC)c(OC)cc3C2=O)c(OC)c1` [6,7-dimethoxy-2-(2',4'-dimethoxyphenylmethylene)-1-tetralone] reads above 50 µM; that for `COc1cc2c(cc1OC)C(=O)C(=Cc1c(OC)cccc1OC)CC2` [6,7-dimethoxy-2-(2',6'-dimethoxyphenylmethylene)-1-tetralone], above 50 µM.
On the same count and under the same terms, the result for `COc1ccccc1C=C1CCc2cc(OC)c(OC)cc2C1=O` [6,7-dimethoxy-2-(2'-methoxyphenylmethylene)-1-tetralone] reads above 50 µM; that for `COc1cc2c(cc1OC)C(=O)C(=Cc1cc(Cl)cc(Cl)c1)CC2` [6,7-dimethoxy-2-(3',5'-dichlorophenylmethylene)-1-tetralone], 7 µM.
For `COc1cc2c(cc1OC)C(=O)C(=Cc1cc(OC)c(O)c(OC)c1)CC2` [6,7-dimethoxy-2-(3',5'-dimethoxy-4'-hydroxyphenylmethylene)-1-tetralone], the CC50 was 6 µM.
The same measure, in the same setting: the figure for `COc1cc2c(cc1OC)C(=O)C(=Cc1cccc(Cl)c1)CC2` [6,7-dimethoxy-2-(3'-chlorophenylmethylene)-1-tetralone] is 9 µM; for `COc1cccc(C=C2CCc3cc(OC)c(OC)cc3C2=O)c1` [6,7-dimethoxy-2-(3'-methoxyphenylmethylene)-1-tetralone] it is 5 µM.
On the same count and under the same terms, the figure for `COc1cc2c(cc1OC)C(=O)C(=Cc1cccc([N+](=O)[O-])c1)CC2` [6,7-dimethoxy-2-(3'-nitrophenylmethylene)-1-tetralone] is 9 µM.

Still in this data set, the particulars now being: read-out: TC50.
In the case of `COc1cc2c(cc1OC)C(=O)/C(=C/c1cc(C)c(O)c(C)c1)C2` [5,6-dimethoxy-2-(3',5'-dimethyl-4'-hydroxyphenylmethylene)-1-indanone], the CC50 is 0.0065 µM.

The next data set has as its system CEM WT, CEM AB9228, MOLT-4, Jurkat, NALL-1, WI-L2, K562, and HL-60 cells. As to the kind of experiment: Cytotoxicity to various proliferating cell lines (average). The format is cell-based, human. The note with it: Homo sapiens, average TC50 over various proliferating cell lines; read-out: TC50 (the source's name). As to the method:
as §1
`O=C1C(=Cc2cc(Cl)cc(Cl)c2)Cc2cc(O)c(O)cc21` [5,6-dihydroxy-2-(3',5'-dichlorophenylmethylene)-1-indanone]: the CC50 stood at 30 µM.
For `COc1cc2c(cc1OC)C(=O)C(=Cc1cc(C)ccc1C)C2` [5,6-dimethoxy-2-(2',5'-dimethylphenylmethylene)-1-indanone], the CC50 amounted to 162 µM.
For the compound `COc1cc2c(cc1OC)C(=O)C(=Cc1c(Cl)cc(-c3ccncc3)cc1Cl)C2` [5,6-dimethoxy-2-(2',6'-dichloro-4'-(pyridin-4-yl)phenylmethylene)-1-indanone], the CC50 is 40 µM.
In the case of `COc1cc2c(cc1OC)C(=O)C(=Cc1c(O)cc(I)cc1I)C2` [5,6-dimethoxy-2-(2'-hydroxy-4',6'-diiodophenylmethylene)-1-indanone], the CC50 was 18 µM.
Same read-out and setting: the figure for `COc1cc2c(cc1OC)C(=O)C(=Cc1cc([N+](=O)[O-])ccc1O)C2` [5,6-dimethoxy-2-(2'-hydroxy-5'-nitrophenylmethylene)-1-indanone] is 15 µM; for `COc1cc2c(cc1OC)C(=O)C(=Cc1cc(F)cc(F)c1)C2` [5,6-dimethoxy-2-(3',5'-difluorophenylmethylene)-1-indanone] it is 19 µM; for `COc1cc2c(cc1OC)C(=O)C(=CC1(O)CC(OC)CC(OC)C1)C2` (centres unmarked) [5,6-dimethoxy-2-(3',5'-dimethoxy-1'-hydroxycyclohexylmethylene)-1-indanone] it is 2 µM.
The same measure, in the same setting: the figure for `COc1cc2c(cc1OC)C(=O)C(=Cc1cc(OC)c(O)c(OC)c1)C2` [5,6-dimethoxy-2-(3',5'-dimethoxy-4'-hydroxyphenylmethylene)-1-indanone] is above 50 µM.
For the compound `COc1cc2c(cc1OC)C(=O)C(=Cc1cc(C)c(OC(=O)CCC(=O)O)c(C)c1)C2` [5,6-dimethoxy-2-(3',5'-dimethyl-4'-O-succinylphenylmethylene)-1-indanone], the CC50 amounted to 1 µM.
The same measure, in the same setting: the result for `COc1cc2c(cc1OC)C(=O)C(=Cc1cc(OC(F)(F)F)cc(OC(F)(F)F)c1)C2` [5,6-dimethoxy-2-(3',5'-ditrifluoromethoxyphenylmethylene)-1-indanone] reads above 100 µM; that for `COc1cc2c(cc1OC)C(=O)C(=Cc1cccc(Cl)c1)C2` [5,6-dimethoxy-2-(3'-chlorophenylmethylene)-1-indanone], above 50 µM; that for `COc1cc(C=C2Cc3cc4c(cc3C2=O)OCO4)cc(OC)c1` [5,6-methylenedioxy-2-(3',5'-dimethoxyphenylmethylene)-1-indanone], above 50 µM.
The same measure, in the same setting: the result for `O=C1C(=Cc2cccc(O)c2O)CCc2cc(O)c(O)cc21` [6,7-dihydroxy-2-(2',3'-dihydroxyphenylmethylene)-1-tetralone] reads above 50 µM; that for `O=C1C(=Cc2cc(O)c(O)c(O)c2)CCc2cc(O)c(O)cc21` [6,7-dihydroxy-2-(3',4',5'-trihydroxyphenylmethylene)-1-tetralone], 43 µM.
Same read-out and setting: the figure for `COc1cc(O)c(C=C2CCc3cc(OC)c(OC)cc3C2=O)c(OC)c1` [6,7-dimethoxy-2-(2',4'-dimethoxy-6'-hydroxyphenylmethylene)-1-tetralone] is 10 µM.
`COc1ccc(OC)c(C=C2CCc3cc(OC)c(OC)cc3C2=O)c1` [6,7-dimethoxy-2-(2',5'-dimethoxyphenylmethylene)-1-tetralone]: the CC50 was 11 µM.
The same measure, in the same setting: the figure for `COc1cc2c(cc1OC)C(=O)C(=Cc1cc(C)ccc1C)CC2` [6,7-dimethoxy-2-(2',5'-dimethylphenylmethylene)-1-tetralone] is 5 µM; for `COc1cc2c(cc1OC)C(=O)C(=Cc1c(C)cccc1C)CC2` [6,7-dimethoxy-2-(2',6'-dimethylphenylmethylene)-1-tetralone] it is above 50 µM; for `COc1cc2c(cc1OC)C(=O)C(=Cc1cc(OC)c(OC)c(OC)c1)CC2` [6,7-dimethoxy-2-(3',4',5'-trimethoxyphenylmethylene)-1-tetralone] it is above 50 µM.
As for `COc1cc2c(cc1OC)C(=O)C(=Cc1cc(C)cc(C)c1)CC2` [6,7-dimethoxy-2-(3',5'-dimethylphenylmethylene)-1-tetralone], the CC50 was found to be 4 µM.
As for `COc1cc2c(cc1OC)C(=O)C(=Cc1ccc(O)c(C(=O)O)c1)CC2` [6,7-dimethoxy-2-(3'-hydrocarboxy-4'-hydroxyphenylmethylene)-1-tetralone], the CC50 is above 50 µM.
Same read-out and setting: the result for `COc1cc2c(cc1OC)C(=O)C(=Cc1ccc(N)cc1)CC2` [6,7-dimethoxy-2-(4'-aminophenylmethylene)-1-tetralone] reads above 50 µM.
Take `COc1ccc2c(c1)C(=O)C(=Cc1cc(C)c(O)c(C)c1)C2` [6-methoxy-2-(3',5'-dimethyl-4'-hydroxyphenylmethylene)-1-indanone]: the CC50 was above 50 µM.
On to `COc1cccc2c1C(=O)C(=Cc1cc(C)c(O)c(C)c1)C2` [7-methoxy-2-(3',5'-dimethyl-4'-hydroxyphenylmethylene)-1-indanone], for which the CC50 was 51 µM.

Still in this data set, the particulars now being: Homo sapiens, read-out: TC50.
For the compound `COc1cc2c(cc1OC)C(=O)/C(=C/c1cc(C)c(O)c(C)c1)C2` [5,6-dimethoxy-2-(3',5'-dimethyl-4'-hydroxyphenylmethylene)-1-indanone], the CC50 was determined as 0.017 µM.

Still in this data set, the particulars now being: average TC50 over various proliferating cell lines; read-out: TC50 (the source's name).
“5,6-dimethoxy-2-(3',5'-dimethyl-4'-phosphonoacetylphenylmethylene)-1-indanone”: the CC50 came to 0.007 µM.
For “6,7-dimethoxy-2-(4'-(pyridine-N-oxide)phenylmethylene)-1-tetralone”, the CC50 is above 50 µM.
`COc1cc2c(cc1OC)C(=O)C(=Cc1cc(F)cc(F)c1)C2` [5,6-dimethoxy-2-(3',5'-difluorophenylmethylene)-1-indanone (]: the CC50 is 26 µM.
